# Tested on: M17_3TAU(P301L) cells
# Test: Retinoic acid-induced cytotoxicity (LDH) in TAU-P301L expressing M17_3TAU(P301L) neuroblastoma cells
# Type: cell-based
# Conditions: Homo sapiens, Neuroblastoma cell, 168 h; toxicity inhibition (LDH) in M17_3TAU(P301L) cells challenged with retinoic acid, 7 days
# Description: A TAU expression plasmid was constructed by sub-cloning the cDNA encoding for human TAU-P301L protein, wherein proline at position 301 was substituted by a leucine residue, into mammalian expression vector pcDNA3.1 resulting in the plasmid pcDNA3.1-TAUP301L. Plasmid pcDNA3.1-TAU P301L was transfected into human neuroblastoma cells (BE-M17; ATCC No. CRL-2267™) using lipofectamine reagent and subsequently, independent clonal cell lines with the plasmids stably integrated into the genome were selected by antibiotic resistance selection (Geneticin (G418)), resulting in cell line M17_3TAUP301L. Expression of the TAUP301L gene in the M17_3TAUP301L cells was confirmed by Western blot analysis.
# M17_3TAU(P301L) cells were treated chronically with retinoic acid (RA) in low serum conditions to induce Alzheimer's disease-like intracellular signaling deregulation leading to increased TAU levels and subsequent cell death. Cytotoxicity of cells was measured by quantification of lactate dehydrogenase (LDH) levels. In dead cells LDH leaked out of the cells into the medium due to a loss of plasma-membrane integrity.
# 3 days preceding the experiment, a pre-culture of M17_3TAU(P301L) cells was prepared, starting from a stock culture, at a density of 50.000-100.000 cells/cm^2 in culture medium (Optimem Reduced Serum with phenol red (Invitrogen, Cat. 31985-047)) supplemented with 10% fetal calf serum (FCS), 1 mM sodium pyruvate, 1×non-essential amino acids (NEAA), 500 μg/ml G418 and 0.5×(ABAM). At the day of the experiment these precultures were diluted to ˜0.1·10^6 cells/ml in detection medium (Optimem Reduced Serum without phenol red (Gibco, Cat.11058-021) supplemented with 1% fetal calf serum (FCS), 1 mM sodium pyruvate, 1×non-essential amino acids (NEAA), 500 μg/ml G418 and 0.5×ABAM) and 60 μL of this suspension was dispensed per well into a 96-well microtiter plate. After 3 hours of incubation at 37° C./5% CO2 an equal volume of detection medium (without FCS) containing 3.75 μM RA was added and subsequently incubated for 7 days at 37° C./5% CO2. Then LDH activity was determined using the Promega Cytotox 96 Non-Radioactive cytotoxicity assay (Cat. G1780), according to the manufacturer's instructions. Cytotoxicity was defined as the ratio of LDH relative the total LDH in the cells and supernatant.
# The assay described above using the M17_3TAU(P301L) cell line allowed to screen compounds for their ability to decrease cytotoxicity in RA-challenged cells. Compounds of the invention were tested for their ability to decrease toxicity at different concentrations, ranging from low non-effective concentrations to high potent concentrations. Afterwards, the dose-dependent inhibition curve was used to calculate their EC50. A compound was considered to be active in this test when it inhibited toxicity by more than 20% relative to untreated M17_3TAU(P301L) cells at a concentration of 10 μM or lower.
row,SMILES,EC50 [nM]
1,"Cc1ccc(CN2CCN(c3nc(-c4ccccc4)no3)CC2)cc1 [Cmpd002, 5-(4-(4-Methylbenzyl)piperazin-1-yl)-3-phenyl-1,2,4-oxadiazole]",8
2,"Clc1ccccc1CN1CCN(c2nc(C3C[C@@H]4CC[C@H]3C4)no2)CC1 (stereo partly drawn) [Cmpd184, 3-((1S,4R)-bicyclo[2.2.1]heptan-2-yl)-5-(4-(2-chlorobenzyl)piperazin-1-yl)-1,2,4-oxadiazole]",135
3,"CC(C)CCN1CCN(c2nc(C3(c4ccccc4)CC3)no2)CC1 [Cmpd133, 5-(4-Isopentylpiperazin-1-yl)-3-(1-phenylcyclopropyl)-1,2,4-oxadiazole]",30
4,"FC(F)(F)c1ccc(-c2noc(N3CCN(CCc4ccc(Cl)cc4)CC3)n2)cc1 [Cmpd183, 1-[2-(4-Chloro-phenyl)-ethyl]-4-[3-(4-trifluoromethyl-phenyl)-[1,2,4]oxadiazol-5-yl]-piperazine]",57
5,"c1ccc(-c2noc(N3CCN(CCN4CCOCC4)CC3)n2)cc1 [Cmpd005, 4-(2-(4-(3-Pphenyl-1,2,4-oxadiazol-5-yl)piperazin-1-yl)ethyl)morpholine]",41
6,"COc1cccc(CCN2CCN(c3nc(Cc4ccc(F)c(F)c4)no3)CC2)c1 [Cmpd098, 1-[3-(3,4-Difluoro-benzyl)-[1,2,4]oxadiazol-5-yl]-4-[2-(3-methoxy-phenyl)-ethyl]-piperazine]",3
7,"Cc1ccccc1CN1CCN(c2nc(CCC(F)(F)F)no2)CC1 [Cmpd176, 5-(4-(2-Methylbenzyl)piperazin-1-yl)-3-(3,3,3-trifluoropropyl)-1,2,4-oxadiazole]",169
8,"CCC(c1ccccc1)c1noc(N2CCN(Cc3ccc4c(c3)OCO4)CC2)n1 (stereo not drawn) [Cmpd047, 5-(4-(Benzo[d][1,3]dioxol-5-ylmethyl)piperazin-1-yl)-3-(1-phenylpropyl)-1,2,4-oxadiazole]",63
9,"COc1cc(CCN2CCN(c3nc(-c4ccc(Cl)cc4)no3)CC2)ccn1 [Cmpd023, 3-(4-Chlorophenyl)-5-(4-(2-(2-methoxypyridin-4-yl)ethyl)piperazin-1-yl)-1,2,4-oxadiazole]",18
10,"Cc1ccccc1CN1CCN(c2nc(Cc3ccc(Cl)cc3)no2)CC1 [Cmpd058, 1-[3-(4-Chloro-benzyl)-[1,2,4]oxadiazol-5-yl]-4-(2-methyl-benzyl)-piperazine]",177
11,"CCCN1CCN(c2nc(Cc3ccc(Cl)cc3)no2)CC1 [Cmpd066, 1-[3-(4-Chloro-benzyl)-[1,2,4]oxadiazol-5-yl]-4-propyl-piperazine]",145
12,"Clc1ccc(CCN2CCN(c3nc(Cc4ccc(Cl)cc4)no3)CC2)cc1 [Cmpd059, 1-[3-(4-Chloro-benzyl)-[1,2,4]oxadiazol-5-yl]-4-[2-(4-chloro-phenyl)-ethyl]-piperazine]",220

# Tested on: M17_3SYN cells
# Test: Paraquat-induced cytotoxicity (LDH) in α-synuclein over-expressing M17_3SYN neuroblastoma cells
# Type: cell-based, human
# Conditions: Homo sapiens, Neuroblastoma cell, 48 h, toxicity inhibition (LDH) in M17_3SYN cells challenged with 6 mM paraquat, 2 days; read-out: SYN EC50
# Description: A α-synuclein expression plasmid was constructed by subcloning the NcoI/XhoI fragment from 212T-SYN(WT) (Griffioen et al., Biochem Biophys Acta (2006) 1762(3):312-318) containing the cDNA of human wild type α-synuclein correspondingly into a standard mammalian expression vector pcDNA3.1 resulting in plasmid pcDNA3.1-SYNwt. Plasmids pcDNA3.1 and pcDNA3.1-SYNwt were transfected into human neuroblastoma cells (BE-M17; ATCC No. CRL-2267™) using lipofectamine reagent and subsequently, independent clonal cell lines with the plasmids stably integrated into the genome were selected by antibiotic resistance selection (Geneticin (G418)), resulting in cell lines M17.pcDNA3 and M17_3SYN. Overexpression of α-synuclein in the M17_3SYN cell line was confirmed by Western blot analysis.
# Due to the high levels of α-synuclein, M17_3SYN cells were sensitive to paraquat, a well-known risk factor Parkinson's disease and of synuclein-dependent neuronal degeneration. Cytotoxicity of cells was measured by quantification of lactate dehydrogenase (LDH) levels. In dead cells, LDH leaked out of the cells into the medium due to a loss of plasma-membrane integrity.
# […], primary pre-cultures of M17.pcDNA3 (as possible control) and M17_3SYN cells were prepared, starting from a stock culture, at a density of 20.000-40.000 cells/cm2 in culture medium (Opti-MEM® Reduced Serum Medium with Phenol Red (Invitrogen, Cat. 31985-047) supplemented with 10% FCS, 1 mM sodium pyruvate, 1×NEAA, 500 μg/ml G418 and 0.5×antibiotic/antimycotic (ABAM)). 3 days later these primary pre-cultures were used as a starting point to make secondary pre-cultures at a density of 50.000-100.000 cells/cm^2. At the day of the experiment these secondary precultures were diluted to ˜0.5·10^6 cells/ml in detection medium (Opti-MEM® Reduced-Serum Medium without Phenol Red (Invitrogen, Cat. 11085-021) supplemented with 10% FCS, 1 mM sodium pyruvate, 1×NEAA, 500 μg/ml G418 and 0.5×ABAM) and 60 μL of this suspension was dispensed per well into a 96-well microtiter plate. After 3 hours of incubation at 37° C./5% CO2 an equal volume of detection medium containing a final concentration of 6 mM Paraquat was added and subsequently incubated for 2 days at 37° C./5% CO2. Then LDH activity was determined using the Promega Cytotox 96 Non-Radioactive cytotoxicity assay (Promega, Cat. G1780), according to the manufacturer's instructions. Cytotoxicity was defined as the ratio of LDH relative to the total LDH in the cells and supernatant.
# The assay described above using the M17_3SYN cell line allowed screening compounds for their ability to decrease cytotoxicity in PQ-challenged cells. Compounds of the invention were tested for their ability to decrease toxicity at different concentrations, ranging from low non-effective concentrations to high effective concentrations. Afterwards, a dose-dependent inhibition curve was used to calculate the EC50. A compound was considered to be active in this test when it inhibited toxicity by more than 20% relative to untreated M17_3SYN cells at a concentration of 10 μM or lower.
row,SMILES,EC50 [nM]
1,"Cc1ccc(-c2noc(N3CCN(S(=O)(=O)c4ccc(C(F)(F)F)cc4)CC3)n2)cc1 [Cmpd016, 3-(p-Tolyl)-5-(4-((4-(trifluoromethyl)phenyl)sulfonyl)piperazin-1-yl)-1,2,4-oxadiazole]",9
2,"CCOc1ccc(S(=O)(=O)N2CCN(c3nc(C(CC)c4ccccc4)no3)CC2)cc1 (stereo not drawn) [Cmpd045, 1-(4-Ethoxy-benzenesulfonyl)-4-[3-(1-phenyl-propyl)-[1,2,4]oxadiazol-5-yl]-piperazine]",18
3,"CC(C)(c1cccc(Cl)c1)c1noc(N2CCN(S(=O)(=O)c3ccc(OC(F)F)cc3)CC2)n1 [Cmpd154, 1-{3-[1-(3-Chloro-phenyl)-1-methyl-ethyl]-[1,2,4]oxadiazol-5-yl}-4-(4-difluoromethoxy-benzenesulfonyl)-piperazine]",7
4,"CCOc1ccc(S(=O)(=O)N2CCN(c3nc(Cc4ccc(F)c(F)c4)no3)CC2)cc1 [Cmpd100, 1-[3-(3,4-Difluoro-benzyl)-[1,2,4]oxadiazol-5-yl]-4-(4-ethoxy-benzenesulfonyl)-piperazine]",130
5,"COc1ccc(S(=O)(=O)N2CCN(c3nc(CC(F)(F)F)no3)CC2)cc1 [Cmpd165, 5-(4-((4-Methoxyphenyl)sulfonyl)piperazin-1-yl)-3-(2,2,2-trifluoroethyl)-1,2,4-oxadiazole]",32
6,"COc1ccc(S(=O)(=O)N2CCN(c3nc(Cc4cccc(Cl)c4)no3)CC2)cc1 [Cmpd072, 1-[3-(3-Chloro-benzyl)-[1,2,4]oxadiazol-5-yl]-4-(4-methoxy-benzenesulfonyl)-piperazine]",3
7,"O=S(=O)(c1ccc(OC(F)F)cc1)N1CCN(c2nc(CC3CC3)no2)CC1 [Cmpd160, 3-(Cyclopropylmethyl)-5-(4-((4-(difluoromethoxy)phenyl)sulfonyl)piperazin-1-yl)-1,2,4-oxadiazole]",148
8,"CCOc1ccc(S(=O)(=O)N2CCN(c3nc(CC(F)(F)F)no3)CC2)cc1 [Cmpd166, 5-(4-((4-Ethoxyphenyl)sulfonyl)piperazin-1-yl)-3-(2,2,2-trifluoroethyl)-1,2,4-oxadiazole]",368
9,"CSc1ccc(S(=O)(=O)N2CCN(c3nc(CC4CC4)no3)CC2)cc1 [Cmpd161, 3-(Cyclopropylmethyl)-5-(4-((4-(methylthio)phenyl)sulfonyl)piperazin-1-yl)-1,2,4-oxadiazole]",23
10,"CCC(c1ccccc1)c1noc(N2CCN(S(=O)(=O)c3ccc(OC(F)F)cc3)CC2)n1 (stereo not drawn) [Cmpd046, 1-(4-Difluoromethoxy-benzenesulfonyl)-4-[3-(1-phenyl-propyl)-[1,2,4]oxadiazol-5-yl]-piperazine]",59
11,"CSc1ccc(S(=O)(=O)N2CCN(c3nc(CCC(F)(F)F)no3)CC2)cc1 [Cmpd172, 5-(4-((4-(Methylthio)phenyl)sulfonyl)piperazin-1-yl)-3-(3,3,3-trifluoropropyl)-1,2,4-oxadiazole]",166
12,"COc1ccc(S(=O)(=O)N2CCN(c3nc(C4(c5ccc(Cl)cc5)CC4)no3)CC2)cc1 [Cmpd138, 1-{3-[1-(4-Chloro-phenyl)-cyclopropyl]-[1,2,4]oxadiazol-5-yl}-4-(4-methoxy-benzenesulfonyl)-piperazine]",39

# Reference: patent US10562869B2, “Oxadiazole compounds” (REMYND NV, priority 2014, dated 2020)
